Assay [1] concerns the target T1, human PPAR γ (Homo sapiens, UniProt P37231).
T1 construct: expressed in transfected cells; host or cells: CV-1 cells
T1 sequence (P37231 204-505): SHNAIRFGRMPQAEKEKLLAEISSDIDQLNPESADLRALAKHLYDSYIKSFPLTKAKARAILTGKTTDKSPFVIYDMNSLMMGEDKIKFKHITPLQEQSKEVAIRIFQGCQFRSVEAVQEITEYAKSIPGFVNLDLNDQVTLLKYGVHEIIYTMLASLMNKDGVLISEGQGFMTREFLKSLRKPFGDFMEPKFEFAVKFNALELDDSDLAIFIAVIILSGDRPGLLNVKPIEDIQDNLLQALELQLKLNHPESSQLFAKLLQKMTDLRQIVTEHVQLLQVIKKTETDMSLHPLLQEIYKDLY
As to the kind of experiment: Luciferase assay using human PPAR γ (PPAR γ agonistic activity). Conditions: compound 10 μM; luciferase activity of troglitazone (10 μM) defined as 1.0; CV-1 cells with Gal4-human PPAR γ ligand binding domain chimera, 42 hours. The assay is classed as cell-based.

Assay [2] concerns the target T2, human PPAR α (Homo sapiens, UniProt Q07869).
T2 construct: expressed in transfected cells; host or cells: CV-1 cells
T2 sequence (Q07869 167-468): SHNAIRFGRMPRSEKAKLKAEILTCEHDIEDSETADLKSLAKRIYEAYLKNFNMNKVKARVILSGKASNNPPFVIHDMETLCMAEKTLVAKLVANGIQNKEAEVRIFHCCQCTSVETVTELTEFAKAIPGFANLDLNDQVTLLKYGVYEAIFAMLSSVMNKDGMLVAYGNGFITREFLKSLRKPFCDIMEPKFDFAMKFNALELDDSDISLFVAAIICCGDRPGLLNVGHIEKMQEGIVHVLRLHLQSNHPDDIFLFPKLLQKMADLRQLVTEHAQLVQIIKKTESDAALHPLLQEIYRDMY
As to the kind of experiment: Luciferase assay using human PPAR α (PPAR α agonistic activity). The assay is classed as cell-based. The settings on record: compound 10 μM; luciferase activity of carbacyclin (10 μM) defined as 1.0; CV-1 cells with Gal4-human PPAR α ligand binding domain chimera, 42 hours.

For `Cc1ccc(-c2nc(CCOc3cccc4c3CCCN4CCC(=O)O)c(C)o2)cc1` [Example 2], the “Relative Activity to a positive control compound (troglitazone = 1)” value in assay [1] is on record as 6.7. Moreover, the “Relative Activity to a positive control compound (carbacyclin = 1)” value in assay [2] is 0.5.

The record behind these values is patent US6924295B2, “Tetrahydroquinoline derivative compound and drug containing the compound as active ingredient” (Ono Pharmaceutical Co., Ltd., priority 2001, dated 2005).
